What all share (format): in vivo
Assay [1] relates to Echinochloa crus-galli (ECHCG). The experiment in a line: Pre-emergence herbicidal glasshouse test, Echinochloa crus-galli. To be noted: Echinochloa crus-galli, 312 h, rate 250 g/ha, evaluated after 13 days, scale 100 = total damage to plant, 0 = no damage. On the procedure:
(§1) Seeds of a variety of test species were sown in standard soil in pots. After cultivation for one day (pre-emergence) or after 8 days cultivation (post-emergence) under controlled conditions in a glasshouse (at 24/16° C., day/night; 14 hours light; 65% humidity), the plants were sprayed with an aqueous spray solution derived from the formulation of the technical active ingredient in acetone/water (50:50) solution containing 0.5% Tween 20 (polyoxyethelyene sorbitan monolaurate, CAS RN 9005-64-5). The test plants were then grown in a glasshouse under controlled conditions in a glasshouse (at 24/16° C., day/night; 14 hours light; 65% humidity) and watered twice daily. After 13 days for pre and post-emergence, the test was evaluated ([…] to plant; 0=no damage to plant).
(§2) Setaria faberi (SETFA), Lolium perenne (LOLPE), Alopecurus myosuroides (ALOMY), Echinochloa crus-galli (ECHCG) and Avena fatua (AVEFA).

Assay [2] has as its system Avena fatua (AVEFA). Kind of assay: Pre-emergence herbicidal glasshouse test, Avena fatua. To be noted: Avena fatua, 312 h, rate 250 g/ha, evaluated after 13 days, scale 100 = total damage to plant, 0 = no damage. How it is done: as §1, §2
Assay [3] deals with Avena fatua (AVEFA). Kind of assay: Post-emergence herbicidal glasshouse test, Avena fatua. To be noted: Avena fatua, 312 h, rate 250 g/ha, evaluated after 13 days, scale 100 = total damage to plant, 0 = no damage. How it is done: as §1, §2
For assay [4], the system named is Alopecurus myosuroides (ALOMY). The experiment in a line: Post-emergence herbicidal glasshouse test, Alopecurus myosuroides. The following applies: Alopecurus myosuroides, 312 h, rate 250 g/ha, evaluated after 13 days, scale 100 = total damage to plant, 0 = no damage. On the procedure: as §1, §2
The subject of assay [5] is Lolium perenne (LOLPE). The experiment in a line: Post-emergence herbicidal glasshouse test, Lolium perenne. To be noted: 312 h, rate 250 g/ha, evaluated after 13 days, scale 100 = total damage to plant, 0 = no damage. On the procedure: as §1, §2
Assay [6] relates to Alopecurus myosuroides (ALOMY). Kind of assay: Pre-emergence herbicidal glasshouse test, Alopecurus myosuroides. To be noted: Alopecurus myosuroides, 312 h, rate 250 g/ha, evaluated after 13 days, scale 100 = total damage to plant, 0 = no damage. On the procedure: as §1, §2
In assay [7] the test system is Echinochloa crus-galli (ECHCG). The experiment in a line: Post-emergence herbicidal glasshouse test, Echinochloa crus-galli. The following applies: Echinochloa crus-galli, 312 h, rate 250 g/ha, evaluated after 13 days, scale 100 = total damage to plant, 0 = no damage. How it is done: as §1, §2
Assay [8] concerns Lolium perenne (LOLPE). Kind of assay: Pre-emergence herbicidal glasshouse test, Lolium perenne. The following applies: 312 h, rate 250 g/ha, evaluated after 13 days, scale 100 = total damage to plant, 0 = no damage. On the procedure:
as §1, §2

As a reminder, the pest or weed control is how far the test organism was held down. A lower pest or weed control goes with a weak effect.

Regarding `CCc1cc(-c2ccc(Cl)c(C)c2)ccc1C1=C(O)C(C)(C)OC(C)(C)C1=O` [Compound A-52], the pest or weed control at 250 g/ha in assay [1] amounted to 20%; in assay [2] it was 0%; in assay [3], 20%; in assay [4], 40%; in assay [5], 40%; in assay [6] it was 0%. Further, the pest or weed control at 250 g/ha in assay [7] was 70%; in assay [8], 0%.
Regarding `Cc1cc(-c2cc(Cl)cc(Cl)c2)cc(C)c1C1=C(O)[C@@]2(C)CC[C@H](O2)C1=O` [Compound A-54], the pest or weed control at 250 g/ha in assay [1] was determined as 0%; in assay [2] it was 0%; in assay [3], 30%; in assay [4] it was 40%; in assay [5] it was 40%; in assay [6] it was 0%. Moreover, the pest or weed control at 250 g/ha in assay [7] came out at 80%; in assay [8], 0%.
Consider `Cc1cc(-c2ccc(F)cc2)cc(C)c1C1=C(O)[C@@]2(C)CC[C@H](O2)C1=O` [Compound A-55], for which the pest or weed control at 250 g/ha in assay [1] came out at 100%; in assay [2] it was 70%; in assay [3] it was 90%; in assay [4], 100%; in assay [5], 100%; in assay [6], 70%. Also, the results for the pest or weed control at 250 g/ha in assay [7] and in assay [8] were 100% and 90%, respectively.
`CCc1cc(-c2cc(F)cc(Cl)c2)ccc1C1=C(O)C(C)(C)OC(C)(C)C1=O` [Compound A-60]: the pest or weed control at 250 g/ha was 0% in assay [1]; 0% in assay [2]; 70% in assay [3]; 60% in assay [4]; 70% in assay [5]; 0% in assay [6]. Also, the results for the pest or weed control at 250 g/ha in assay [7] and in assay [8] were 90% and 0%, respectively.
Consider `CCc1cc(-c2ccc(C(F)(F)F)cc2)ccc1C1=C(O)C(C)(C)OC(C)(C)C1=O` [Compound A-70], for which the pest or weed control at 250 g/ha in assay [1] turned out to be 0%; in assay [2], 0%; in assay [3], 0%; in assay [4], 40%; in assay [5], 50%; in assay [6], 0%. Besides, the pest or weed control at 250 g/ha in assay [7] is 80%; in assay [8], 0%.
For `CCc1cc(-c2cccc(OC)c2)ccc1C1=C(O)C(C)(C)OC(C)(C)C1=O` [Compound A-71], the pest or weed control at 250 g/ha in assay [1] was 0%; in assay [2] it was 0%; in assay [3], 0%; in assay [4], 30%; in assay [5] it was 80%; in assay [6], 0%. For the same compound, the pest or weed control at 250 g/ha was determined as 80% in assay [7] and 0% in assay [8].
On to `CCc1cc(-c2ccc(C)c(F)c2)ccc1C1=C(O)C(C)(C)OC(C)(C)C1=O` [Compound A-72], for which the pest or weed control at 250 g/ha is 0% in assay [1]; 0% in assay [2]; 0% in assay [3]; 0% in assay [4]; 70% in assay [5]; 0% in assay [6]. In addition, the pest or weed control at 250 g/ha came to 80% in assay [7] and 0% in assay [8].
As to `CCc1cc(-c2ccc(C)cc2)ccc1C1=C(O)C(C)(C)OC(C)(C)C1=O` [Compound A-73], the pest or weed control at 250 g/ha in assay [1] came out at 0%; in assay [2], 0%; in assay [3] it was 0%; in assay [4] it was 30%; in assay [5], 60%; in assay [6] it was 0%. Moreover, the pest or weed control at 250 g/ha in assay [7] was 80%; in assay [8], 0%.
Consider `CCc1cc(-c2cc(Cl)ccc2OC)ccc1C1=C(O)C(C)(C)OC(C)(C)C1=O` [Compound A-74], for which the pest or weed control at 250 g/ha is 0% in assay [1]; 0% in assay [2]; 40% in assay [3]; 80% in assay [4]; 70% in assay [5]; 0% in assay [6]. Besides, the values for the pest or weed control at 250 g/ha in assay [7] and in assay [8] were 100% and 0%, respectively.
As to `CCc1cc(-c2ccc(F)c(F)c2)ccc1C1=C(O)C(C)(C)OC(C)(C)C1=O` [Compound A-75], the pest or weed control at 250 g/ha in assay [1] was found to be 0%; in assay [2], 30%; in assay [3] it was 90%; in assay [4], 90%; in assay [5], 100%; in assay [6], 0%. Besides, the pest or weed control at 250 g/ha in assay [7] turned out to be 100%; in assay [8], 40%.
With `CCc1cc(-c2ccc(F)c(Cl)c2)ccc1C1=C(O)C(C)(C)OC(C)(C)C1=O` [Compound A-76], the pest or weed control at 250 g/ha in assay [1] is 0%; in assay [2] it was 0%; in assay [3] it was 40%; in assay [4], 80%; in assay [5], 80%; in assay [6], 0%. The pest or weed control at 250 g/ha is 70% in assay [7] and 0% in assay [8].
With `CCc1cc(-c2ccc(F)c(OC)c2)ccc1C1=C(O)C(C)(C)OC(C)(C)C1=O` [Compound A-78], the pest or weed control at 250 g/ha came out at 0% in assay [1]; 30% in assay [2]; 90% in assay [3]; 80% in assay [4]; 100% in assay [5]; 20% in assay [6]. In addition, the pest or weed control at 250 g/ha in assay [7] is 100%; in assay [8] it was 80%.
For the compound `CCc1cc(-c2ccc(F)cc2F)ccc1C1=C(O)C(C)(C)OC(C)(C)C1=O` [Compound A-82], the pest or weed control at 250 g/ha in assay [1] came out at 30%; in assay [2], 20%; in assay [3], 0%; in assay [4], 80%; in assay [5], 80%; in assay [6] it was 10%. Moreover, the pest or weed control at 250 g/ha in assay [7] worked out at 80%; in assay [8], 70%.
For the compound `CCc1cc(-c2cc(Cl)cc(C(F)(F)F)c2)ccc1C1=C(O)C(C)(C)OC(C)(C)C1=O` [Compound A-83], the pest or weed control at 250 g/ha in assay [1] amounted to 0%; in assay [2], 0%; in assay [3] it was 50%; in assay [4], 80%; in assay [5] it was 70%; in assay [6], 0%. In addition, the values for the pest or weed control at 250 g/ha in assay [7] and in assay [8] were 80% and 0%, respectively.
For the compound `CCc1cc(-c2cc(F)c(F)c(F)c2)ccc1C1=C(O)C(C)(C)OC(C)(C)C1=O` [Compound A-84], the pest or weed control at 250 g/ha in assay [1] stood at 30%; in assay [2], 40%; in assay [3] it was 100%; in assay [4], 80%; in assay [5], 100%; in assay [6] it was 30%. The values for the pest or weed control at 250 g/ha in assay [7] and in assay [8] were 100% and 70%, respectively.
For the compound `CCc1cc(-c2ccc(F)cc2OC)ccc1C1=C(O)C(C)(C)OC(C)(C)C1=O` [Compound A-85], the pest or weed control at 250 g/ha was 20% in assay [1]; 30% in assay [2]; 40% in assay [3]; 60% in assay [4]; 70% in assay [5]; 0% in assay [6]. The pest or weed control at 250 g/ha in assay [7] was determined as 80%; in assay [8], 70%.
On to `CCc1cc(-c2cc(F)c(F)cc2F)ccc1C1=C(O)C(C)(C)OC(C)(C)C1=O` [Compound A-86], for which the pest or weed control at 250 g/ha came to 0% in assay [1]; 0% in assay [2]; 70% in assay [3]; 80% in assay [4]; 90% in assay [5]; 0% in assay [6]. For the same compound, the figures for the pest or weed control at 250 g/ha in assay [7] and in assay [8] were 100% and 0%, respectively.

For the origin of these results see patent US8895761B2, “4-phenylpyrane-3,5-diones, 4-phenylthiopyrane-3,5-diones and 2-phenylcyclohexane-1,3,5-triones as herbicides” (Syngenta Limited, priority 2007, dated 2014).
